Measured values from PubChem BioAssay AID180 (DTP/NCI, 2004).
“And” between values parts separate entries of the source, which are not always exact repeats. Equal values may be shown once.

Test system: BDF1 mice, Adenocarcinoma 755 s.c., tumor weight T/C
Test: NCI In Vivo Anticancer Drug Screen. Data for tumor model Adenocarcinoma 755 (subcutaneous) in B6D2F1 (BDF1) mice
Conditions: endpoint: mean tumor weight, higher = larger tumour
Summary of the method: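 Readout: T/C, i.e. treated-group measurement over vehicle-control measurement. Endpoint is survival or tumor size in tumor-bearing mice given compound.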

SMILES: COB1OB(OC)OB(OC)O1
- T/C (dose: 18.75 mg/kg/injection, schedule: Q01DX011 (ip), vehicle: water): 78 % of control
- T/C (dose: 250.0 mg/kg/injection, schedule: Q#A X022 (oral), vehicle: water): 64 % of control
- T/C (dose: 335.0 mg/kg/injection, schedule: Q01DX011 (ip), vehicle: other): 51 % of control
- T/C (dose: 375.0 mg/kg/injection, schedule: Q01DX011 (im), vehicle: other): 59 % of control
- T/C (dose: 375.0 mg/kg/injection, schedule: Q01DX011 (ip), vehicle: other): 75 % of control
- T/C (dose: 375.0 mg/kg/injection, schedule: Q01DX011 (ip), vehicle: water): 61 % of control
- T/C (dose: 375.0 mg/kg/injection, schedule: Q01DX011 (sc), vehicle: other): 81 % of control
- T/C (dose: 450.0 mg/kg/injection, schedule: Q#A X022 (sc), vehicle: other): 40 % of control
- T/C (dose: 500.0 mg/kg/injection, schedule: Q01DX011 (ip), vehicle: other): 41 % of control and 51 % of control
- T/C (dose: 500.0 mg/kg/injection, schedule: Q01DX011 (oral), vehicle: other): 97 % of control and 75 % of control
- T/C (dose: 500.0 mg/kg/injection, schedule: Q#A X022 (oral), vehicle: water): 43 % of control
- T/C (dose: 600.0 mg/kg/injection, schedule: Q01DX011 (oral), vehicle: other): 53 % of control
- T/C (dose: 600.0 mg/kg/injection, schedule: Q## X012 (oral), vehicle: other): 109 % of control
- T/C (dose: 600.0 mg/kg/injection, schedule: Q#A X022 (im), vehicle: other): 28 % of control
- T/C (dose: 600.0 mg/kg/injection, schedule: Q#A X022 (sc), vehicle: other): 74 % of control
- T/C (dose: 750.0 mg/kg/injection, schedule: Q01DX011 (im), vehicle: other): 65 % of control and 74 % of control
- T/C (dose: 750.0 mg/kg/injection, schedule: Q01DX011 (ip), vehicle: other): 43 % of control and 47 % of control and 55 % of control
- T/C (dose: 750.0 mg/kg/injection, schedule: Q01DX011 (ip), vehicle: water): 20 % of control
- T/C (dose: 750.0 mg/kg/injection, schedule: Q01DX011 (oral), vehicle: other): 71 % of control
- T/C (dose: 750.0 mg/kg/injection, schedule: Q02DX006 (ip), vehicle: other): 71 % of control
- T/C (dose: 750.0 mg/kg/injection, schedule: Q## X006 (ip), vehicle: other): 78 % of control
- T/C (dose: 750.0 mg/kg/injection, schedule: Q#A X022 (oral), vehicle: water): 7 % of control and 21 % of control
- T/C (dose: 750.0 mg/kg/injection, schedule: Q#A X022 (sc), vehicle: other): 43 % of control
- T/C (dose: 800.0 mg/kg/injection, schedule: Q01DX011 (im), vehicle: other): 77 % of control
- T/C (dose: 800.0 mg/kg/injection, schedule: Q#A X022 (im), vehicle: other): 50 % of control
- T/C (dose: 1000.0 mg/kg/injection, schedule: Q01DX011 (im), vehicle: other): 48 % of control and 56 % of control
- T/C (dose: 1000.0 mg/kg/injection, schedule: Q01DX011 (ip), vehicle: other): 14 % of control and 37 % of control
- T/C (dose: 1000.0 mg/kg/injection, schedule: Q01DX011 (oral), vehicle: saline): 47 % of control
- T/C (dose: 1000.0 mg/kg/injection, schedule: Q01DX011 (oral), vehicle: water): 37 % of control
- T/C (dose: 1000.0 mg/kg/injection, schedule: Q02DX006 (ip), vehicle: other): 45 % of control
- T/C (dose: 1000.0 mg/kg/injection, schedule: Q## X006 (ip), vehicle: other): 63 % of control
- T/C (dose: 1000.0 mg/kg/injection, schedule: Q## X012 (oral), vehicle: other): 84 % of control
- T/C (dose: 1000.0 mg/kg/injection, schedule: Q#A X022 (oral), vehicle: water): 8 % of control
- T/C (dose: 1000.09 mg/kg/injection, schedule: Q01DX011 (oral), vehicle: other): 36 % of control
- T/C (dose: 1125.0 mg/kg/injection, schedule: Q01DX011 (ip), vehicle: other): 43 % of control
- T/C (dose: 1200.0 mg/kg/injection, schedule: Q01DX011 (im), vehicle: other): 22 % of control
- T/C (dose: 1250.0 mg/kg/injection, schedule: Q01DX011 (sc), vehicle: other): 38 % of control
- T/C (dose: 1250.0 mg/kg/injection, schedule: Q#A X022 (oral), vehicle: water): 2 % of control and 10 % of control
- T/C (dose: 1500.0 mg/kg/injection, schedule: Q01DX011 (im), vehicle: other): 16 % of control and 30 % of control
- T/C (dose: 1500.0 mg/kg/injection, schedule: Q01DX011 (ip), vehicle: water): 6 % of control
- T/C (dose: 1500.0 mg/kg/injection, schedule: Q01DX011 (oral), vehicle: saline): 16 % of control
- T/C (dose: 1500.0 mg/kg/injection, schedule: Q01DX011 (oral), vehicle: water): 16 % of control
- T/C (dose: 1500.0 mg/kg/injection, schedule: Q01DX011 (sc), vehicle: other): 22 % of control
- T/C (dose: 1500.0 mg/kg/injection, schedule: Q02DX006 (ip), vehicle: other): 37 % of control
- T/C (dose: 1500.0 mg/kg/injection, schedule: Q## X006 (ip), vehicle: other): 58 % of control
- T/C (dose: 1500.0 mg/kg/injection, schedule: Q## X012 (oral), vehicle: other): 51 % of control
- T/C (dose: 2000.0 mg/kg/injection, schedule: Q01DX011 (oral), vehicle: saline): 14 % of control
- T/C (dose: 2000.0 mg/kg/injection, schedule: Q01DX011 (oral), vehicle: water): 7 % of control
- T/C (dose: 2000.0 mg/kg/injection, schedule: Q## X012 (oral), vehicle: other): 15 % of control
- T/C (dose: 2500.0 mg/kg/injection, schedule: Q01DX011 (oral), vehicle: saline): 4 % of control
- T/C (dose: 2500.0 mg/kg/injection, schedule: Q## X012 (oral), vehicle: other): 22 % of control

SMILES: CN(C)S(=O)(=O)c1ncc2[nH]cnc2n1
- T/C (dose: 25.0 mg/kg/injection, schedule: Q01DX011 (ip), vehicle: carboxymethylcellulose (CMC)): 116 % of control
- T/C (dose: 75.0 mg/kg/injection, schedule: Q01DX011 (ip), vehicle: carboxymethylcellulose (CMC)): 98 % of control
- T/C (dose: 225.0 mg/kg/injection, schedule: Q01DX011 (ip), vehicle: carboxymethylcellulose (CMC)): 84 % of control

SMILES: C/C(=N\NC(=O)c1ccncc1)c1ccccc1Cl
- T/C (dose: 30.0 mg/kg/injection, schedule: Q01DX011 (ip), vehicle: methylcellulose (MC)): 56 % of control
- T/C (dose: 60.0 mg/kg/injection, schedule: Q01DX011 (ip), vehicle: methylcellulose (MC)): 61 % of control
